Data as given in patent publication US20170065670A1, “METHODS FOR TREATING IMMUNE MEDIATED NEUROLOGICAL DISEASES” (Trinity Therapeutics, Inc., priority 2005, published 2017).
One block for each molecule: values may come before it.

Experiments:
human C1q = experiment: Reverse ELISA: inhibition of PAP immune complex binding to C1q coated plates; conditions: summary of Table 1
Description: (§1) For this reason, a “reverse ELISA” technique was used to assess binding of the Fc region to ligands that bind to immune complexed IgG Fc. In these assays, the enzyme (HRP) was not covalently conjugated to the Fc portion of the secondary antibody. Rather, a preformed immune complex of peroxidase-rabbit (or mouse) anti-peroxidase IgG (“PAP” complex) was used. […] In the reverse ELISA system, an Fc CH2-CH3 cleft binding ligand (e.g., purified human C1q) was bound to microwell plates. In the absence of competitor, PAP complexes bound to the immobilized ligand and the reaction between HRP and its substrate produced a signal. This signal was reduced by polypeptides and compounds, such as those provided herein, that inhibited PAP binding to the immobilized ligand.
PAP complexes were formed by mixing 2 μl of rabbit anti-peroxidase (Sigma Chemicals, St. Louis, Mo.) with 50 μl of peroxidase (Sigma-Aldrich, St. Louis, Mo.) in 1 ml distilled water. PAP (100 μl) were pre-incubated with 100 μl of peptide or human C1q (Quidel Corp., San Diego, Calif.) for one hour. The C1q/PAP and peptide/PAP mixtures (100 μl) were then incubated with C1q coated plates for 30 minutes. After washing, plates were incubated with 2-2′-azinobis-3-ethylbenzthiazoline-6-sulfonate (ATBS; Quidel Corp.) for 15 minutes and read at 405 nm.

human wt α-synuclein = experiment: Reverse ELISA: inhibition of immune complexed IgG (PAP) binding to wt α-synuclein
Description: as §1
PAP complexes were formed mixing 2 μl of rabbit anti-peroxidase (Sigma) with 50 μl of peroxidase (Sigma) in 1 ml distilled water. PAP (100 μl) were pre-incubated with 100 μl of peptide for one hour. Control PAP (200 μl) also was incubated for one hour. 100 μl of either PAP or PAP/peptide was added to Falcon microtiter plates that had been coated for 24 or 48 hours with 167 μg/ml human wt α-synuclein (Sigma-Aldrich), and the plates were incubated for 60 minutes. After washing, plates were incubated with ATBS for 30 minutes and then read at 405 nm.

[1] = tested on: human wt tau protein (441 residues); experiment: Reverse ELISA: inhibition of immune complexed IgG (PAP) binding to wt tau
Description: as §1
PAP complexes were formed by mixing 2 μl of rabbit anti-peroxidase with 50 μl of peroxidase in 1 ml distilled water. PAP (100 μl) were pre-incubated with 100 μl of peptide for one hour. Control PAP (200 μl) also was incubated for one hour. 100 μl of either PAP or PAP/peptide was added to Falcon microtiter plates that had been coated for 24 hours with 16.7 μg/ml human wt tau protein (441 residues; Sigma-Aldrich). The PAP or peptide/PAP mixtures (100 μl) were added after one hour to tau coated plates and incubated for 60 minutes. After washing, plates were incubated with ATBS for 15 minutes, and read at 405 nm.

FcγIIa = experiment: Reverse ELISA: inhibition of PAP immune complex binding to FcγIIa coated plates; conditions: summary of Table 2, FcR overall (FcγIIa, FcγIIb, FcγIII)
Description: as §1
Once the reverse ELISA protocol was established using the C1q assay, the assay was redesigned using FcγIIa, FcγIIb and FcγIII in place of C1q. Highly purified FcγIIa, FcγIIb and FcγIII were immunoadsorbed onto plastic microwells. […]
Falcon microtiter plates were coated with 1:10 dilutions of highly purified FcγIIa, FcγIIb and FcγIII and incubated for 24 hours. […] After washing, plates were incubated with ABTS substrate for 15 minutes and read at 405 nm.

human wtSOD1 = experiment: Reverse ELISA: inhibition of immune complexed IgG (PAP) binding to wt SOD1; conditions: for wt SOD1 (read at 405 nm): plates coated 24 h with 0.8 μg/ml human wtSOD1, PAP/peptide 60 min, lower = more inhibition, positive control 2.900; for inhibition of wt SOD1 binding to PAP (in words): summary of Table 3
Description: as §1
(§2) PAP complexes were formed as described in Example 2. PAP (100 μl) were pre-incubated with 100 μl of peptide for one hour, and control (200 μl of PAP) also was incubated for one hour. 100 μl of either PAP or PAP/peptide was added to Falcon microtiter plates that had been coated for 24 hours with either 0.8 μg/ml human wtSOD1 (Sigma-Aldrich) or apo (non Cu, Zn containing) monomeric mutant SOD1 C57S (mSOD1C57S). The PAP or peptide/PAP mixtures (100 μl) were added after one hour to either wt SOD1 or mSOD1C57S coated plates for 60 minutes. After washing, plates were incubated with ATBS for 15 minutes and read at 405 nm.

[2] = tested on: apo (non Cu, Zn containing) monomeric mutant SOD1 C57S (mSOD1C57S); experiment: Reverse ELISA: inhibition of immune complexed IgG (PAP) binding to mutant SOD1; conditions: for mSOD1C57S (read at 405 nm): plates coated 24 h with mSOD1C57S, PAP/peptide 60 min, lower = more inhibition, positive control […]; for inhibition of mSOD1C57S binding to PAP (in words): summary of Table 3
Description: as §1, §2

[3] = tested on: human wt β amyloid peptide 1-40; experiment: Reverse ELISA: inhibition of immune complexed IgG (PAP) binding to wt β-amyloid peptide 1-40; conditions: summary of Table 7
Description: as §1
Different fragments of the Aβ peptide contribute to the amyloid plaques pathognomic for AD, and these Aβ fragments appear to stimulate microglial activation and subsequent AD neuropathology. Thus, experiments were conducted to test Aβ 1-40 for binding to immune complexes, and to determine whether the inhibitors described herein can inhibit binding of PAP immune complexes to Aβ peptide. PAP complexes were prepared by mixing 2 μl of rabbit anti-peroxidase with 50 μl of peroxidase in 1 ml distilled water. […] After washing, plates were incubated with ATBS for 15 minutes and read at 405 nm.

[4] = target: Human wt α-synuclein (Sigma-Aldrich) (human) (UniProt P37840); experiment: reverse ELISA: PAP without peptide on α-synuclein-coated plate (24 h coating)
Highly purified FcγIIa = Highly purified FcγIIa (UniProt P12318); experiment: reverse ELISA: PAP without peptide on FcγIIa-coated plate
[5] = target: Preformed immune complex of peroxidase-rabbit anti-peroxidase IgG (PAP complex) (horseradish) (UniProt P00433); experiment: reverse ELISA competition: peptide pre-incubated with PAP; competitor: immobilised mSOD1C57S
[6] = target: Preformed immune complex of peroxidase-rabbit anti-peroxidase IgG (PAP complex) (horseradish) (UniProt P00433); experiment: reverse ELISA competition: peptide pre-incubated with PAP; competitor: immobilised human wt α-synuclein, plate coated 24 h
[7] = target: Preformed immune complex of peroxidase-rabbit anti-peroxidase IgG (PAP complex) (horseradish) (UniProt P00433); experiment: reverse ELISA competition: peptide pre-incubated with PAP; competitor: immobilised human wt SOD1
[8] = target: Preformed immune complex of peroxidase-rabbit anti-peroxidase IgG (PAP complex) (horseradish) (UniProt P00433); experiment: reverse ELISA competition: peptide pre-incubated with PAP; competitor: immobilised human wt α-synuclein, plate coated 48 h

Chain of Preformed immune complex of peroxidase-rabbit anti-peroxidase IgG (PAP complex) (horseradish) (P00433 31-338, one chain of several): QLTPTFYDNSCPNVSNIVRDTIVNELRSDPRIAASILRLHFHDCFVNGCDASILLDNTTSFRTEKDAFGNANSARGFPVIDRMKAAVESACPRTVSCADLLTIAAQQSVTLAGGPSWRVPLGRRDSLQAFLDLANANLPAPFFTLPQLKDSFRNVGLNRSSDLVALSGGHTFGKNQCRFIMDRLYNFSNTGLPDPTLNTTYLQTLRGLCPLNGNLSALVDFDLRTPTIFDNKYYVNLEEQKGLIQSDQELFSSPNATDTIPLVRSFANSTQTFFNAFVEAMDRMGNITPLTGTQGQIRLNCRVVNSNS
Chain of Preformed immune complex of peroxidase-rabbit anti-peroxidase IgG (PAP complex) (P00433 31-338, one chain of several): as above
Chain of Highly purified FcγIIa (P12318 34-217 limits assumed): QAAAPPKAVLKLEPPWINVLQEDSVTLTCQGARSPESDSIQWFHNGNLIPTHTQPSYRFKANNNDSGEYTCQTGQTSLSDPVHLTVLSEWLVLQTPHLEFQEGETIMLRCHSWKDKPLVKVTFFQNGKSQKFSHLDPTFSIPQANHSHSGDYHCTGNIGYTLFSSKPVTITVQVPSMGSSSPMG

Molecule: APPCARHLGELVWCT
inhibition of C1q binding (rank in words) (human C1q): next best result

Molecule: APPDCAWHLGELVWCT
Wt α-synuclein (read at 405 nm) (human wt α-synuclein; plates coated 24 h with 167 μg/ml α-synuclein, lower = more inhibition, positive control 1.433, substrate only 0.061): 0.088 | inhibition of α-synuclein binding to PAP (rank in words) (human wt α-synuclein; summary of Table 5): greatest inhibition | Wt tau protein (read at 405 nm) ([1]; plates coated 24 h with 16.7 μg/ml tau, lower = more inhibition, positive control 0.695, substrate only 0.060): 0.059 | inhibition of human wt tau protein binding to PAP (rank in words) ([1]; summary of Table 6): greatest inhibition | inhibition of FcR binding to PAP (rank in words) (FcγIIa): greatest inhibition | wt SOD1 (read at 405 nm) (human wtSOD1): 0.277 | inhibition of wt SOD1 binding to PAP (in words) (human wtSOD1): greatest inhibition | inhibition of wt SOD1 binding to PAP (in words) (human wtSOD1; listed as peptide 16): best inhibition | mSOD1C57S (read at 405 nm) [2]: 0.226 | inhibition of mSOD1C57S binding to PAP (in words) [2]: greatest inhibition | inhibition of mSOD1C57S binding to PAP (in words) ([2]; listed as peptide 16): best inhibition | inhibition of C1q binding (rank in words) (human C1q): greatest inhibition

Molecule: DCAWHLGELVWCT
inhibition of human wt β amyloid peptide binding to PAP (rank in words) [3]: greatest inhibition | wt SOD1 (read at 405 nm) (human wtSOD1): 0.292 | inhibition of wt SOD1 binding to PAP (in words) (human wtSOD1; listed as peptide 2): inhibited | mSOD1C57S (read at 405 nm) [2]: 0.592 | inhibition of mSOD1C57S binding to PAP (in words) ([2]; listed as peptide 2): inhibited

OD 405 nm [4]: 1.43 OD | OD 405 nm (Highly purified FcγIIa): 1.6 OD
Molecule: Preformed immune complex of peroxidase-rabbit anti-peroxidase IgG (PAP complex) (from UniProt P00433 31-338)

OD 405 nm [5]: 0.226 OD | OD 405 nm [6]: 0.088 OD | OD 405 nm [7]: 0.277 OD | OD 405 nm [8]: 0.136 OD
Molecule: APPDCAWHLGELVWCT [Peptide … (SEQ ID NO:16)]
